Test results reported in ChEMBL document CHEMBL4346735, “Discovery and pharmacological evaluation of indole derivatives as potent and selective RORγt inverse agonist for multiple autoimmune conditions” (Bioorg Med Chem Lett, 2019).
Values after ≈ are worked out from the molar mass of the structure shown.

Experiments:
[1] = molecular target: T1, Nuclear receptor ROR-gamma (Homo sapiens, UniProt P51449); assay: Transactivation of recombinant GAL4-DBD fused RORgammat LBD (unknown origin) expressed in HEK293T cells incubated for 18 to 24 hrs by dual-Glo luciferase assay; assay type: cell-based
T1 sequence (P51449 whole entry): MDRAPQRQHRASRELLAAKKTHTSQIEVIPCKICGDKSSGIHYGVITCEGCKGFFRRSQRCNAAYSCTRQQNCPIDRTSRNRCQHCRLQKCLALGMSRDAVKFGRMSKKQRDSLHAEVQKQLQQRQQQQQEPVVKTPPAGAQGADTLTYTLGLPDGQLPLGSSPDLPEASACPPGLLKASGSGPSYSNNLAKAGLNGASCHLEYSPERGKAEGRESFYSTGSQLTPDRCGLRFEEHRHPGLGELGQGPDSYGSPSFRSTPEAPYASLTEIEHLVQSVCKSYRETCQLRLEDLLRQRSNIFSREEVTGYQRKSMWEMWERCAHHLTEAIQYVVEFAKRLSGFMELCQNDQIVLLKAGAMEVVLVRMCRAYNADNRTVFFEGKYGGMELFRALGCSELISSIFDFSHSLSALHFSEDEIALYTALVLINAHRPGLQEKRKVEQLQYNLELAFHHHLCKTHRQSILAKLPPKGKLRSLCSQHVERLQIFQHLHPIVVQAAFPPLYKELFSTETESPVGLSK

[2] = molecular target: T2, Cytochrome P450 1A2 (Homo sapiens, UniProt P05177); assay: Inhibition of CYP1A2 in human liver microsomes using phenacetin as substrate preincubated for 5 mins followed by NADPH addition measured after 10 mins by LC-MS/MS analysis
T2 sequence (P05177 whole entry): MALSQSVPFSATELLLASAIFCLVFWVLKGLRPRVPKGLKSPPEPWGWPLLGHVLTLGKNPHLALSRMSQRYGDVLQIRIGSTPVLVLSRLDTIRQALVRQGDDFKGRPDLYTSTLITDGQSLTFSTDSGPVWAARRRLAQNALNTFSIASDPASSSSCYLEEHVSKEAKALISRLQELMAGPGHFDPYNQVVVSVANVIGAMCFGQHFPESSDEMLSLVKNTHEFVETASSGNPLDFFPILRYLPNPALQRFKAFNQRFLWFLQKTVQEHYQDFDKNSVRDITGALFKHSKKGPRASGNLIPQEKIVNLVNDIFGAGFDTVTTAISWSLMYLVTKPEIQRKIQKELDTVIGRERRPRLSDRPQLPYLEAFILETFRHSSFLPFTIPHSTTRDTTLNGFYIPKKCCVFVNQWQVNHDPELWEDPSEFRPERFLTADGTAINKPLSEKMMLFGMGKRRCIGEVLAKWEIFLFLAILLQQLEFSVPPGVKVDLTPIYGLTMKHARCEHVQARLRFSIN

[3] = molecular target: Cytochrome P450 2C9 (Homo sapiens, UniProt P11712); assay: Inhibition of CYP2C9 in human liver microsomes using diclofenac as substrate preincubated for 5 mins followed by NADPH addition measured after 10 mins by LC-MS/MS analysis
[4] = molecular target: Cytochrome P450 2C19 (Homo sapiens, UniProt P33261); assay: Inhibition of CYP2C19 in human liver microsomes using (S)-mephenytoin as substrate preincubated for 5 mins followed by NADPH addition measured after 40 mins by LC-MS/MS analysis
[5] = molecular target: Cytochrome P450 2D6 (Homo sapiens, UniProt P10635); assay: Inhibition of CYP2D6 in human liver microsomes using dextromethorphan as substrate preincubated for 5 mins followed by NADPH addition measured after 10 mins by LC-MS/MS analysis
[6] = Cmax in mouse at 10 mg/kg, po; assay type: ADME, organism-based; parameters: dose 10 mg/kg, route oral; details: in vivo
[7] = Tmax in mouse at 10 mg/kg, po; assay type: ADME, organism-based; details: in vivo
[8] = AUC (0 to 24 hrs) in mouse at 10 mg/kg, po; assay type: ADME, organism-based; parameters: dose 10 mg/kg, time < 24 hr, route oral; details: in vivo
[9] = Volume of distribution at steady state in mouse at 3 mg/kg, iv; assay type: ADME, organism-based; details: in vivo, read-out: Vdss
[10] = Clearance in mouse at 3 mg/kg, iv; assay type: ADME, organism-based; details: in vivo
[11] = Half life in mouse at 3 mg/kg, iv; assay type: ADME, organism-based; details: in vivo
[12] = Oral bioavailability in mouse at 10 mg/kg; assay type: ADME, organism-based; details: in vivo
[13] = molecular target: T3, Nuclear receptor ROR-alpha (Homo sapiens, UniProt P35398); assay: Inhibition of GAL4-DBD fused RORalpha LBD (unknown origin) expressed in HEK293T cells; assay type: cell-based
T3 sequence (P35398 whole entry): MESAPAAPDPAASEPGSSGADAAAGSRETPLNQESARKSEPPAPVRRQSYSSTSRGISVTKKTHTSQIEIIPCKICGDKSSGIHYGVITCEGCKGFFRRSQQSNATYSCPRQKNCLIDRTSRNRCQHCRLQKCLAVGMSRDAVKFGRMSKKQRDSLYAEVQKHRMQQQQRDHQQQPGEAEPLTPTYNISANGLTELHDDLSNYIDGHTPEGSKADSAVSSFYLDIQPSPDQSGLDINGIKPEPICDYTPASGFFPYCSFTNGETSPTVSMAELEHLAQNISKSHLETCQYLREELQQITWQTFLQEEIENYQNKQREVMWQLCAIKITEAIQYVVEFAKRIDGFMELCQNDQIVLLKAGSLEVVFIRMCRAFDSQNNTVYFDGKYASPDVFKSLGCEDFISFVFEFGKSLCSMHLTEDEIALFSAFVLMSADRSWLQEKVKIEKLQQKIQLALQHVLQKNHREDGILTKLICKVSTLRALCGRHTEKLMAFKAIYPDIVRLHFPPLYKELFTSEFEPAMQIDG

[14] = Metabolic stability in mouse liver microsomes assessed as parent compound remaining at 1 uM preincubated for 5 mins followed by NADPH addition after 30 mins by LC-MS/MS analysis; assay type: ADME, Microsome; details: read-out: Stability
[15] = Metabolic stability in rat liver microsomes assessed as parent compound remaining at 1 uM preincubated for 5 mins followed by NADPH addition after 30 mins by LC-MS/MS analysis; assay type: ADME, Microsome; details: read-out: Stability
[16] = Metabolic stability in human liver microsomes assessed as parent compound remaining at 1 uM preincubated for 5 mins followed by NADPH addition after 30 mins by LC-MS/MS analysis; assay type: ADME, Microsome; details: read-out: Stability
[17] = molecular target: T4, Cytochrome P450 3A4 (Homo sapiens, UniProt P08684); assay: Inhibition of CYP3A4 in human liver microsomes using testosterone as substrate preincubated for 5 mins followed by NADPH addition measured after 10 mins by LC-MS/MS analysis
[18] = Solubility of the compound at pH 2.1; details: buffer
[19] = Solubility of the compound at pH 4; details: buffer
[20] = Solubility of the compound at pH 7.4; details: buffer
[21] = molecular target: T1, Nuclear receptor ROR-gamma; assay: Inverse agonist activity at GST-tagged RORgammat LBD (unknown origin) using fluorescein-D22 co-activator peptide as substrate incubated for 1 hr by TR-FRET assay
[22] = molecular target: T4, Cytochrome P450 3A4; assay: Inhibition of CYP3A4 in human liver microsomes using midazolam as substrate preincubated for 5 mins followed by NADPH addition measured after 10 mins by LC-MS/MS analysis

T4 sequence (P08684 whole entry): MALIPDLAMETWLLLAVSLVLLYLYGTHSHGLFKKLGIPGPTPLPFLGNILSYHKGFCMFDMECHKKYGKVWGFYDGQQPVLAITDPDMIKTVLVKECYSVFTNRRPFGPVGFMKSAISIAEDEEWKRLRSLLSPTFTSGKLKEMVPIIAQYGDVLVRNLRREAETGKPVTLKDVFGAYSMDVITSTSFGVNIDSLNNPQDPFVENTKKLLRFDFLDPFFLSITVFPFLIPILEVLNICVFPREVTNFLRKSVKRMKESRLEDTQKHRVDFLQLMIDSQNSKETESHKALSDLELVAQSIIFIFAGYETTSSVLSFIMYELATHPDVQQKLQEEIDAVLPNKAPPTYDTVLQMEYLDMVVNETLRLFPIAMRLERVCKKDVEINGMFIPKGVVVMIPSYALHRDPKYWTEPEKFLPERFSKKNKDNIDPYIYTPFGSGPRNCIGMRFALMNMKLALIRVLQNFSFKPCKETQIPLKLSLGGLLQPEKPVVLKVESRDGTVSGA
Chain of Cytochrome P450 2C9 (P11712 whole entry): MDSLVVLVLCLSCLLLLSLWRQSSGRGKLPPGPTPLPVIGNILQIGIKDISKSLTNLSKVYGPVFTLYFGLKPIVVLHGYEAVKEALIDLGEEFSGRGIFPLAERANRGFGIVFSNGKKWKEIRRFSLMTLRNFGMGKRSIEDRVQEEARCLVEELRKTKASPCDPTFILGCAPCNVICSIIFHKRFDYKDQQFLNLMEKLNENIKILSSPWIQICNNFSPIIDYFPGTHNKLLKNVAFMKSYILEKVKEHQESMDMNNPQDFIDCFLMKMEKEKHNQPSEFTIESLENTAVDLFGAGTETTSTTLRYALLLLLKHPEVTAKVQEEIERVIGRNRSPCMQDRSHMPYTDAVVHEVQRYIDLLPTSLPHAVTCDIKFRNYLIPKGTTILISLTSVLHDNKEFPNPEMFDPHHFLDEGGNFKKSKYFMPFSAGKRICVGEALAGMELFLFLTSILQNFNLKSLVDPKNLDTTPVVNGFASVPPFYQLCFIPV
Chain of Cytochrome P450 2D6 (P10635 whole entry): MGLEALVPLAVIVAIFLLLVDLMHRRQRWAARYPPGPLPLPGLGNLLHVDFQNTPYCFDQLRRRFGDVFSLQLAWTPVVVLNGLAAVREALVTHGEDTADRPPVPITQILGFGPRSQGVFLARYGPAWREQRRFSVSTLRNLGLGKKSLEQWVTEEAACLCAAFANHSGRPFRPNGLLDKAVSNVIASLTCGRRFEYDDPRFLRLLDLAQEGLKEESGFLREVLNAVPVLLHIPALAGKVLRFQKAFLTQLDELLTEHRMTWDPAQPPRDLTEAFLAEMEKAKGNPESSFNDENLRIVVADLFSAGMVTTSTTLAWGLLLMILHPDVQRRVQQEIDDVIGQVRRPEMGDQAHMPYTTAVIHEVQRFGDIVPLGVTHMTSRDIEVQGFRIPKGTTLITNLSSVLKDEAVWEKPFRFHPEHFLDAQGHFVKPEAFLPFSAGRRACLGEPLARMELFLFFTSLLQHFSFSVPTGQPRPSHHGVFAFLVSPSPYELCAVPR
Chain of Cytochrome P450 2C19 (P33261 whole entry): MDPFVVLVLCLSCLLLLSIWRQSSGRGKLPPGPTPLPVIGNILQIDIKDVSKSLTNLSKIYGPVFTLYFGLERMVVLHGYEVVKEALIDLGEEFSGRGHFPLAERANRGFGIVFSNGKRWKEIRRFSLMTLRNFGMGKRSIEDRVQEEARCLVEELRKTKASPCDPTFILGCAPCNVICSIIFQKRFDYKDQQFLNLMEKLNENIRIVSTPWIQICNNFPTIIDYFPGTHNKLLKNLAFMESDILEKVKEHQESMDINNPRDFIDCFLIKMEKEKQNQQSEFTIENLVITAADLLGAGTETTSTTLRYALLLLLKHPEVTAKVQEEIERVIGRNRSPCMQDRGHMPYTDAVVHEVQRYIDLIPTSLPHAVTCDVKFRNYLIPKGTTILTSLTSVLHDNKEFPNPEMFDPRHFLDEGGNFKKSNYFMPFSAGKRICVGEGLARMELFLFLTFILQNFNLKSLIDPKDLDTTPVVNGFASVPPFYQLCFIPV

Structure (SMILES) | IC50 [1] [µM] | IC50 [2] [µM] | IC50 [3] [µM] | IC50 [4] [µM] | IC50 [5] [µM] | Cmax [6] [µM] | Tmax [7] [h] | AUC(0-t) at 24 h [8] [µM·h] | Vd [9] [L/kg] | clearance [10] [mL/min/kg] | half-life [11] [h] | bioavailability [12] [%] | IC50 [13] [µM] | remaining at 0.5 h, 1 µM [14] [%] | remaining at 0.5 h, 1 µM [15] [%] | remaining at 0.5 h, 1 µM [16] [%] | IC50 [17] [µM] | solubility [18] [µM] | solubility [19] [µM] | solubility [20] [µM] | further results
O=C(O)c1ccc(-n2cc(C(=O)c3c(Cl)cccc3C(F)(F)F)c3c(F)cccc32)c(F)c1 | 0.016 | > 50 | 20.3 | > 50 | > 50 | 17.5 | 0.5 | 46.5 | 1 | 4.6 | 2.7 | 62 | > 30 | 78 | 76 | 100 | – | – | – | – | –
O=C(O)c1ccc(-n2cc(C(=O)c3c(Cl)cccc3Cl)c3cccnc32)c(F)c1 | 0.032 | > 50 | 16 | > 50 | > 10 | – | – | – | – | – | – | – | – | 92 | 90 | 100 | > 50 | < 1 | < 1 | > 2000 | –
O=C(O)c1ccc(-n2cc(C(=O)c3c(Cl)cccc3Cl)c3c(F)cccc32)cc1 | 0.076 | > 50 | > 50 | > 50 | > 50 | – | – | – | – | – | – | – | – | 100 | 78 | 100 | 49 | < 1 | < 1 | > 2000 | IC50 [21]: 0.025 µM; IC50 [22]: > 50 µM
O=C(O)c1ccc(-n2cc(C(=O)c3c(Cl)cccc3Cl)c3cccnc32)cc1 | 0.104 | – | – | – | – | – | – | – | – | – | – | – | – | 100 | 100 | 100 | – | 1 (≈ 0.411 µg/mL) | 3 (≈ 1.23 µg/mL) | 407 (≈ 167 µg/mL) | IC50 [21]: 0.02 µM
O=C(O)c1ccc(-n2cc(C(=O)c3c(F)cccc3Cl)c3ccccc32)cc1 | 0.199 | 96.6 | 9 | > 100 | > 100 | – | – | – | – | – | – | – | – | 100 | 100 | 100 | – | – | – | – | IC50 [21]: 0.02 µM; IC50 [22]: > 100 µM
O=C(O)c1ccc(-n2cc(C(=O)c3c(Cl)cccc3C(F)(F)F)c3cccnc32)c(F)c1 | 0.015 | > 50 | 17.2 | > 50 | > 50 | 12.1 | 0.5 | 35.1 | 2.4 | 11 | 3.2 | 100 | > 30 | 87 | 73 | 100 | > 50 | – | – | – | –
O=C(O)c1ccc(-n2cc(C(=O)c3c(Cl)cccc3Cl)c3ccccc32)c(F)c1 | – | – | – | – | – | 5.7 | 0.5 | 9.1 | 2.8 | 21.2 | 1.8 | 52 | > 30 | 91 | 51 | 92 | – | – | – | – | –
O=C(O)c1ccc(-n2cc(C(=O)c3c(Cl)cccc3C(F)(F)F)c3ccccc32)cc1 | – | > 25 | 16 | > 50 | > 50 | – | – | – | – | – | – | – | – | 100 | 95 | 100 | > 50 | 10 (≈ 4.44 µg/mL) | 1 (≈ 0.444 µg/mL) | 1470 (≈ 654 µg/mL) | IC50 [22]: 37 µM
